Values of other authors in patent US5691323A, “Muscarine antagonists” (Merck & Co., Inc., priority 1995, dated 1997).

What was measured:
[1] = background statement
pupil = settings: background
[2] = tested on: smooth muscle (ordinarily called M3 type); settings: background
axial elongation = settings: background

SMILES: CN1[C@@H]2CC[C@H]1C[C@@H](OC(=O)C(CO)c1ccccc1)C2 (stereo partly shown) [atropine]
- Sensitization assay result [1]: positive
- Pupil dilation (mydriasis) (pupil): causes mydriasis

SMILES: C[N+]1(C)CCC(OC(=O)C(c2ccccc2)c2ccccc2)CC1 [Example 4-DAMP, 4-diphenylacetoxy-N-methylpiperadine methiodide]
- Selectivity for smooth muscle (M3 type) receptors [2]: relatively selective antagonist for smooth muscle

SMILES: CN1CCc2cccc3c2[C@H]1Cc1ccc(O)c(O)c1-3 [apomorphine]
- Effect on axial elongation / enlargement of the eye (axial elongation): inhibit or actually prevent the axial enlargement of the eye

SMILES: CN1CCN(CC(=O)N2c3ccccc3C(=O)Nc3cccnc32)CC1 [Pirenzepine]
- Sensitization assay result [1]: positive
- Effect on axial elongation / enlargement of the eye (axial elongation): inhibits axial elongation
- Pupil dilation (mydriasis) (pupil): far less effective at pupil dilation than atropine
